Marks after values point to notes of the source that are not given here.
Key:
soybean lipoxygenase 1-B = target: T1, soybean lipoxygenase 1-B (Glycine max, UniProt P08170); experiment: In vitro inhibition of soybean lipoxygenase; assay type: biochemical; settings: linoleic acid (100 μM) as substrate, after 7 min of incubation; for inhibition at 100 µM: 100 μM compound, read-out: Lipoxygenase percent inhibition at 100 μM
T1 sequence (P08170 1-839): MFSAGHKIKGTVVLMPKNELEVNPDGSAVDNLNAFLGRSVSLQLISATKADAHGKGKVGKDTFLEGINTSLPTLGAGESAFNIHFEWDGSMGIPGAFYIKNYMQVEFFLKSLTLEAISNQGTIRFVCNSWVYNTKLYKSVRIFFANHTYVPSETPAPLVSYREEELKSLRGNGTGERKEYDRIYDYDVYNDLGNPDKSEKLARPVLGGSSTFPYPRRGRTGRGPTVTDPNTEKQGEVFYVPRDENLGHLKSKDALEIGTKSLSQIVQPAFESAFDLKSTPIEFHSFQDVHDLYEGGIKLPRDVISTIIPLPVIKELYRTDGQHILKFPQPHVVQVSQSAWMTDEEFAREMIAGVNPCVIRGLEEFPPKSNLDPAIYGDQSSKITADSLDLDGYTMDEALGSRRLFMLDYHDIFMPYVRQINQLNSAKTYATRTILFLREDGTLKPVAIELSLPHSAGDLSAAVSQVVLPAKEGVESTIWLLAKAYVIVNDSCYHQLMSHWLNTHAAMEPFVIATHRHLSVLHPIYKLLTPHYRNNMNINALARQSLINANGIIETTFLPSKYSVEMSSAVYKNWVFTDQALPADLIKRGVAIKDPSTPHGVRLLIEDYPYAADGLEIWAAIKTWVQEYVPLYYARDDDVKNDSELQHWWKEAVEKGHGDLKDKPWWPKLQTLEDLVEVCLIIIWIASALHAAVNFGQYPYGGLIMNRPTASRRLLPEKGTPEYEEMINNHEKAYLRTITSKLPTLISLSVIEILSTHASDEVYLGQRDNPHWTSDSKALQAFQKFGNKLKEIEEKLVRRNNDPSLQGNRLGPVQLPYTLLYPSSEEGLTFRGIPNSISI
Description: The reaction mixture contained the test compounds, dissolved in absolute ethanol (0.1 mL) at various concentrations, or the solvent (control, 0.1 mL), soybean lipoxygenase dissolved in 0.9% NaCl solution (250 u/mL, 0.2 mL) and sodium linoleate (100 μM) in Tris–HCl buffer, pH 9.0 (2.7 mL). The reaction was followed for 7 min at 28 °C, recording the absorbance of a conjugated diene structure at 234 nm, due to the formation of 13-hydroperoxy-linoleic acid. […] For the estimation of the type of inhibition, the above experiments were repeated, using sodium linoleate at 1 mM, which is higher than the saturating substrate concentration.

[1] = Interaction with the stable radical DPPH; settings: DPPH 200 μM, after 30 min
Description: Compounds, dissolved in absolute ethanol, at concentrations of 25–200 μM, were added to an equal volume of an ethanolic solution of DPPH (final concentration 200 μM) at room temperature (22 ± 2 °C). Absorbance (517 nm) was recorded after 30 min [26]. For the calculation of percent interaction, the residual absorbance of DPPH Ai (at a fixed concentration) after its interaction with the examined compounds (at various concentrations) was compared with the control absorbance Ao, without the addition of compounds, following the equation: (1) Percent interaction=100−(Ai/Ao×100)

[2] = tested on: rat hepatic microsomal membrane lipid peroxidation; experiment: Inhibition of rat hepatic microsomal membrane lipid peroxidation (ferrous ascorbate induced, TBA reactive material); assay type: biochemical; settings: after 45 min of incubation; for IC50: rat hepatic microsomal membrane
Description: The peroxidation of the heat-inactivated rat hepatic microsomal fraction was induced by ferrous ascorbate. The studied compounds, in dimethylsulfoxide, were added at concentrations of 1 μM–1 mM. Aliquots were taken from the incubation mixture (37 °C) for 45 min. Lipid peroxidation was assessed spectrophotometrically (535/600 nm) as a 2-thiobarbituric acid reactive material. The incubation mixture and solvents were found not to interfere with the assay.

[3] = tested on: carrageenan-induced rat paw edema; experiment: Carrageenan-induced rat paw edema; assay type: in vivo, Wistar rats; settings: ip, 0.15 mmol/kg i.p., 3.5 h after carrageenan, vs controls, read-out: % Edema Reduction
Description: An amount of 0.1 mL of an aqueous carrageenan solution (1% w/v) was injected into the hind paw of adult Wistar rats (6 rats were used for each compound). The tested compounds (in water with a few drops of Tween 80) were administered i.p. (0.15 mmol/kg) 5 min before the carrageenan administration. The produced edema, after 3.5 h, was estimated as paw weight increase.

[4] = tested on: Triton WR1339 (tyloxapol)-induced hyperlipidemia; experiment: Triton WR1339 (tyloxapol)-induced hyperlipidemia in rats; assay type: in vivo, Wistar rats; settings: 150 μmol/kg i.p., rat plasma, 24 h, tyloxapol 200 mg/kg i.p.
Description: The examined compounds (0.15 mmol/kg) were administered i.p. one hour later. Blood was taken from the aorta after 24 h, for the determination of plasma total cholesterol, LDL cholesterol and triglyceride concentration, using commercial kits.

In the case of `Cc1c(C)c2c(c(C)c1O)CCC(C)(C(=O)NC(CO)C(=O)O)O2` (stereo not drawn) [Compound 1, 3-Hydroxy-2-(6-hydroxy-2,5,7,8-tetramethylchroman-2-carboxamido)propanoic acid], the inhibition at 100 µM (soybean lipoxygenase 1-B) is reported as 30%, the “Percent Interaction with DPPH” value ([1]; compound 25 μM) is reported as 19.6% and the “Percent Interaction with DPPH” value ([1]; compound 50 μM) is reported as 48.0%. For the same compound, the “Percent Interaction with DPPH” value ([1]; compound 100 μM) was 87.0%, the “Percent Interaction with DPPH” value ([1]; compound 200 μM) was 90.4% and the IC50 [2] was 150 µM. It also gave an inhibition in vivo at 150 µmol/kg [3] of 43%.

With `CC(C)(C)c1cc(C(=O)NC(CO)C(=O)O)cc(C(C)(C)C)c1O` (stereo not drawn) [Compound 2, 2-(3,5-Di-tert-butyl-4-hydroxybenzamido)-3-hydroxypropanoic acid] the inhibition at 100 µM (soybean lipoxygenase 1-B) was 15%, the “Percent Interaction with DPPH” value ([1]; compound 200 μM) was “lower than 10%” and the “Inhibition of Lipid Peroxidation, percent at 1 mM” value ([2]; 1 mM compound) was 40%/1 mM. For the same compound, the inhibition in vivo at 150 µmol/kg [3] was 44%.

With `CC(C)(C)c1cc(/C=C/C(=O)NC(CO)C(=O)O)cc(C(C)(C)C)c1O` (stereo not drawn) [Compound 3, (E)-2-(3-(3,5-di-tert-butyl-4-hydroxyphenyl)acrylamido)-3-hydroxypropanoic acid] the inhibition at 100 µM (soybean lipoxygenase 1-B) was 20%, the “Percent Interaction with DPPH” value ([1]; compound 25 μM) was 12.9% and the “Percent Interaction with DPPH” value ([1]; compound 50 μM) was 17.4%. The “Percent Interaction with DPPH” value ([1]; compound 100 μM) was 35.9%, the “Percent Interaction with DPPH” value ([1]; compound 200 μM) was 82.3% and the IC50 [2] was 80 µM. The inhibition in vivo at 150 µmol/kg [3] was 27%.

For `CCOC(=O)C(CO)NC(=O)C1(C)CCc2c(C)c(O)c(C)c(C)c2O1` (stereo not drawn) [Compound 4, Ethyl 3-hydroxy-2-(6-hydroxy-2,5,7,8-tetramethylchroman-2-carboxamido)propanoate], the inhibition at 100 µM (soybean lipoxygenase 1-B) was 15%, the “% Reduction LDL-C (LDL cholesterol)” value [4] was 60.2 * % and the “% Reduction TC (total cholesterol)” value [4] was 46.2 ** %. The “% Reduction TG (triglycerides)” value [4] was 53.4 ** %, the “Percent Interaction with DPPH” value ([1]; compound 25 μM) was 24.5% and the “Percent Interaction with DPPH” value ([1]; compound 50 μM) was 53.3%. For the same compound, the “Percent Interaction with DPPH” value ([1]; compound 100 μM) was 88.2%, the “Percent Interaction with DPPH” value ([1]; compound 200 μM) was 92.4% and the IC50 [2] was 7.3 µM. For the same compound, the inhibition in vivo at 150 µmol/kg [3] was 37%.

With `CCOC(=O)C(CO)NC(=O)c1cc(C(C)(C)C)c(O)c(C(C)(C)C)c1` (stereo not drawn) [Compound 5, Ethyl 2-(3,5-di-tert-butyl-4-hydroxybenzamido)-3-hydroxypropanoate] the IC50 (soybean lipoxygenase 1-B) was 200 µM, the “% Reduction LDL-C (LDL cholesterol)” value [4] was 66.0 ** % and the “% Reduction TC (total cholesterol)” value [4] was 52.3 ** %. For the same compound, the “% Reduction TG (triglycerides)” value [4] was 62.0 ** %, the “Percent Interaction with DPPH” value ([1]; compound 200 μM) was “lower than 10%” and the IC50 [2] was 163 µM. The inhibition in vivo at 150 µmol/kg [3] was 47%.

In the case of `CCOC(=O)C(CO)NC(=O)/C=C/c1cc(C(C)(C)C)c(O)c(C(C)(C)C)c1` (stereo not drawn) [Compound 6, (E)-ethyl 2-(3-(3,5-di-tert-butyl-4-hydroxyphenyl)acrylamido)-3-hydroxypropanoate], the IC50 (soybean lipoxygenase 1-B) is reported as 156 µM, the “Percent Interaction with DPPH” value ([1]; compound 25 μM) is reported as 17.9% and the “Percent Interaction with DPPH” value ([1]; compound 50 μM) is reported as 21.2%. The “Percent Interaction with DPPH” value ([1]; compound 100 μM) was 48.6%, the “Percent Interaction with DPPH” value ([1]; compound 200 μM) was 88.7% and the IC50 [2] was 22 µM. For the same compound, the inhibition in vivo at 150 µmol/kg [3] was 44%.

For `CCOC(=O)C(COC(=O)C(C)c1ccc(CC(C)C)cc1)NC(=O)C1(C)CCc2c(C)c(O)c(C)c(C)c2O1` (stereo not drawn) [Compound 7, Ethyl 2-(6-hydroxy-2,5,7,8-tetramethylchroman-2-carboxamido)-3-((2-(4-isobutylphenyl)propanoyl)oxy)propanoate], the inhibition at 100 µM (soybean lipoxygenase 1-B) was < 15%, the “Percent Interaction with DPPH” value ([1]; compound 25 μM) was 22.6% and the “Percent Interaction with DPPH” value ([1]; compound 50 μM) was 54.2%. The “Percent Interaction with DPPH” value ([1]; compound 100 μM) was 89.0%, the “Percent Interaction with DPPH” value ([1]; compound 200 μM) was 91.6% and the IC50 [2] was 3.4 µM. It also gave an inhibition in vivo at 150 µmol/kg [3] of 45%.

With `CCOC(=O)C(COC(=O)C(C)c1ccc(CC(C)C)cc1)NC(=O)c1cc(C(C)(C)C)c(O)c(C(C)(C)C)c1` (stereo not drawn) [Compound 8, Ehyl 2-(3,5-di-tert-butyl-4-hydroxybenzamido)-3-((2-(4-isobutylphenyl)propanoyl)oxy)propanoate] the IC50 (soybean lipoxygenase 1-B) was 13 µM, the “Percent Interaction with DPPH” value ([1]; compound 100 μM) was 4.0% and the “Percent Interaction with DPPH” value ([1]; compound 200 μM) was 18.7%. For the same compound, the “Inhibition of Lipid Peroxidation, percent at 500 μM” value ([2]; 500 μM compound) was 30%/500 μM and the inhibition in vivo at 150 µmol/kg [3] was 48%.

For `CCOC(=O)C(COC(=O)C(C)c1cccc(C(=O)c2ccccc2)c1)NC(=O)C1(C)CCc2c(C)c(O)c(C)c(C)c2O1` (stereo not drawn) [Compound 10, Ethyl 3-((2-(3-benzoylphenyl)propanoyl)oxy)-2-(6-hydroxy-2,5,7,8-tetramethylchroman-2-carboxamido)propanoate], the inhibition at 100 µM (soybean lipoxygenase 1-B) was 23%, the “Percent Interaction with DPPH” value ([1]; compound 25 μM) was 12.4% and the “Percent Interaction with DPPH” value ([1]; compound 50 μM) was 30.1%. The “Percent Interaction with DPPH” value ([1]; compound 100 μM) was 64.6%, the “Percent Interaction with DPPH” value ([1]; compound 200 μM) was 87.0% and the IC50 [2] was 2.8 µM. It also gave an inhibition in vivo at 150 µmol/kg [3] of 42%.

In the case of `CC(C)Cc1ccc(C(C)C(=O)O)cc1` (stereo not drawn) [Ibuprofen, ibuprofen, reference compound], the inhibition in vivo at 150 µmol/kg [3] is reported as 36%.

`CC(C(=O)O)c1cccc(C(=O)c2ccccc2)c1` (stereo not drawn) [Ketoprofen, ketoprofen, reference compound] gave an IC50 (soybean lipoxygenase 1-B) of 220 µM.

For `Cc1c(C)c2c(c(C)c1O)CCC(C)(C(=O)O)O2` (stereo not drawn) [Trolox, 6-hydroxy-2,5,7,8-tetramethylchroman-2-carboxylic acid, reference compound], the IC50 (soybean lipoxygenase 1-B) was > 300 µM, the “Percent Interaction with DPPH” value ([1]; compound 25 μM) was 22.0% and the “Percent Interaction with DPPH” value ([1]; compound 50 μM) was 38.0%. For the same compound, the “Percent Interaction with DPPH” value ([1]; compound 100 μM) was 90.0%, the “Percent Interaction with DPPH” value ([1]; compound 200 μM) was 92.0% and the IC50 [2] was 25 µM.

Reference: publication PMC8272148, “Antioxidant Serine-(NSAID) Hybrids with Anti-Inflammatory and Hypolipidemic Potency” (Molecules, 2021)
